# From patent US10359701B2, “Material for forming underlayer film for lithography, composition for forming underlayer film for lithography, underlayer film for lithography and pattern forming method” (Mitsubishi Gas Chemical Company, Inc., priority 2015, dated 2019)
# Legend:
# [1] = Thermogravimetric measurement (TG) of the synthesized compound; type: physicochemical
# [2] = Solubility: amount of compound dissolved in PGMEA at 23° C.
# Description: The amount of the compound dissolved in propylene glycol monomethyl ether acetate (PGMEA) was measured at 23° C., and the results were evaluated according to the following criteria.
# Evaluation A: 10% by mass or more
# Evaluation B: less than 10% by mass
SMILES,20% thermal weight loss temperature [1],solubility in PGMEA [2],solubility in PGMEA (Evaluation) [2]
"N#COc1ccc(C(c2ccccc2)c2ccc(OC#N)cc2)cc1 [B-CN, bis(4-cyanatophenyl)phenylmethane]",≥ 400 °C,≥ 10 % by mass,A (10% by mass or more)
"N#COc1ccc(-c2ccc(OC#N)c(C(c3ccc(-c4ccccc4)cc3)c3cc(-c4ccc(OC#N)cc4)ccc3OC#N)c2)cc1 [BiF-CN, bis(4,4′-cyanatobiphenyl) biphenylmethane]",≥ 400 °C,≥ 10 % by mass,A (10% by mass or more)
